# Reference: ChEMBL document CHEMBL5154925, “Design and Optimization of Thienopyrimidine Derivatives as Potent and Selective PI3Kδ Inhibitors for the Treatment of B-Cell Malignancies” (J Med Chem, 2022)
# Experiments:
# [1] = biological target: Serine/threonine-protein kinase mTOR (Homo sapiens, UniProt P42345); assay: Inhibition of mTOR (unknown origin)
# [2] = biological target: T1, Phosphatidylinositol 4,5-bisphosphate 3-kinase catalytic subunit beta isoform (Homo sapiens, UniProt P42338); assay: Inhibition of PI3Kbeta in LPA stimulated human PC-3 cells incubated for 10 mins by AlphaLISA assay; format: cell-based
# [3] = biological target: Phosphatidylinositol 4,5-bisphosphate 3-kinase catalytic subunit alpha isoform (Mus musculus, UniProt P42337); assay: Inhibition of PI3Kalpha in IGF-1 stimulated mouse C2C12 cells incubated for 10 mins by AlphaLISA assay; format: cell-based
# [4] = Solubility of the compound in FaSSIF; format: physicochemical
# [5] = biological target: Phosphatidylinositol 4,5-bisphosphate 3-kinase catalytic subunit alpha isoform (Homo sapiens, UniProt P42336); assay: Inhibition of PI3Kalpha (unknown origin) using PIP2 as substrate measured after 1 hr in presence of ATP by ADP-glo luminescence assay
# [6] = biological target: T1, Phosphatidylinositol 4,5-bisphosphate 3-kinase catalytic subunit beta isoform; assay: Inhibition of PI3Kbeta (unknown origin) using PIP2 as substrate measured after 1 hr in presence of ATP by ADP-glo luminescence assay
# [7] = biological target: T2, Phosphatidylinositol 4,5-bisphosphate 3-kinase catalytic subunit delta isoform (Homo sapiens, UniProt O00329); assay: Inhibition of PI3Kdelta in IgM stimulated human Raji cells incubated for 10 mins by AlphaLISA assay; format: cell-based
# T2 sequence (O00329 whole entry): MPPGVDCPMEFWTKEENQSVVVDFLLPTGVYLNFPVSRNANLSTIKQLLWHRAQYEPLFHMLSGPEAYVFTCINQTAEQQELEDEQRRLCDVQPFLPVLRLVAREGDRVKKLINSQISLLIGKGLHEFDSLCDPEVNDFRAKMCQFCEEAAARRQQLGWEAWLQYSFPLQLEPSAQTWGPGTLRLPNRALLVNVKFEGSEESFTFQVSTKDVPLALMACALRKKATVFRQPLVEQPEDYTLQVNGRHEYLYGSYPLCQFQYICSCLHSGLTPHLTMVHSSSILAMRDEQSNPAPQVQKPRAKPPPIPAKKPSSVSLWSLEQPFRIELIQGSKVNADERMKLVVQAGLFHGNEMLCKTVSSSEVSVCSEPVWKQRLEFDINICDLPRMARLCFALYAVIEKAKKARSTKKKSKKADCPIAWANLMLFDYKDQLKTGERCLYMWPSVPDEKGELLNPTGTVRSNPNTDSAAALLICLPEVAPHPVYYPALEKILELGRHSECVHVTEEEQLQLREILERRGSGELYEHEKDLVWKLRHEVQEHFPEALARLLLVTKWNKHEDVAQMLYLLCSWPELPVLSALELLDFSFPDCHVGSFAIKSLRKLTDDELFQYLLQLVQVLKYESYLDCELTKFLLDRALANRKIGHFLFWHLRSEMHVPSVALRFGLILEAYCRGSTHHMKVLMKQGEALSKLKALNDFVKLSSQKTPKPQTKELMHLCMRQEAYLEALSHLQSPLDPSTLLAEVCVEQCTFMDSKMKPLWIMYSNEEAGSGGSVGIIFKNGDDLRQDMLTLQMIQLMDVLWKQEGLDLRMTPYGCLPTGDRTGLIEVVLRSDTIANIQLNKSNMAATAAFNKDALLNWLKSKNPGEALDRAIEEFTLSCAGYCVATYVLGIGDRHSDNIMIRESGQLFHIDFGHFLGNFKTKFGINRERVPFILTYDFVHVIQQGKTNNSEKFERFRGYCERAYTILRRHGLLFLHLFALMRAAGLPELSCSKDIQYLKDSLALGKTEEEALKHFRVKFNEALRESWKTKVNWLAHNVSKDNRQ
# [8] = Microsomal stability in mouse liver microsomes assessed as intrinsic clearance; format: ADME, Microsome; details: read-out: CLH
# [9] = biological target: Phosphatidylinositol 4,5-bisphosphate 3-kinase catalytic subunit gamma isoform (Homo sapiens, UniProt P48736); assay: Inhibition of PI3Kgamma (unknown origin) using PIP2 as substrate measured after 1 hr in presence of ATP by ADP-glo luminescence assay
# [10] = Solubility of the compound in PBS; format: physicochemical
# [11] = biological target: T2, Phosphatidylinositol 4,5-bisphosphate 3-kinase catalytic subunit delta isoform; assay: Inhibition of PI3Kdelta (unknown origin) using PIP2 as substrate measured after 1 hr in presence of ATP by ADP-glo luminescence assay
# [12] = Microsomal stability in mouse liver microsomes assessed as half life; format: ADME, Microsome
# [13] = Plasma protein binding in mouse; format: ADME, cell-free; details: read-out: PPB (converted)
# [14] = biological target: Phosphatidylinositol 4,5-bisphosphate 3-kinase catalytic subunit gamma isoform (Mus musculus, UniProt Q9JHG7); assay: Inhibition of PI3Kgamma in C5a stimulated mouse RAW264.7 cells incubated for 10 mins by AlphaLisa assay; format: cell-based
# [15] = tested on: Pfeiffer; assay: Induction of apoptosis in human Pfeiffer cells assessed as necrotic cells at 2 uM incubated for 48 hrs by annexin V-FITC staining based flow cytometry (reference value: 6.62 %); format: functional
# [16] = tested on: Pfeiffer; assay: Induction of apoptosis in human Pfeiffer cells assessed as late apoptotic cells at 2 uM incubated for 48 hrs by annexin V-FITC staining based flow cytometry (reference value: 7.87 %); format: functional
# [17] = tested on: Z-138; assay: Antiproliferative activity against human Z138 cells assessed as cell growth inhibition incubated for 96 hrs by cell titer glo assay; format: functional, cell-based; details: Z-138, 96 h
# [18] = tested on: Pfeiffer; assay: Induction of apoptosis in human Pfeiffer cells assessed as viable […] cells at 2 uM incubated for 48 hrs by annexin V-FITC staining based flow cytometry (reference value: 81.14 %); format: functional
# [19] = tested on: Pfeiffer; assay: Induction of apoptosis in human Pfeiffer cells assessed as necrotic cells at 10 uM incubated for 48 hrs by annexin V-FITC staining based flow cytometry (reference value: 6.62 %); format: functional
# [20] = Toxicity in nude mouse xenografted with human Pfeiffer cells assessed as effect on body weight at 30 mg/kg, po BID for 21 days and measured twice weekly; format: organism-based; details: in vivo, 504 h, time 21 day
# [21] = tested on: Pfeiffer; assay: Induction of apoptosis in human Pfeiffer cells assessed as early apoptotic cells at 2 uM incubated for 48 hrs by annexin V-FITC staining based flow cytometry (reference value: 4.16 %); format: functional
# [22] = tested on: SU-DHL-6; assay: Antiproliferative activity against human SU-DHL-6 cells assessed as cell growth inhibition incubated for 96 hrs by cell titer glo assay; format: functional, cell-based; details: SU-DHL-6, 96 h
# [23] = tested on: Pfeiffer; assay: Induction of apoptosis in human Pfeiffer cells assessed as viable […] cells at 10 uM incubated for 48 hrs by annexin V-FITC staining based flow cytometry (reference value: 81.14 %); format: functional
# [24] = tested on: JeKo-1; assay: Antiproliferative activity against human JeKo-1 cells assessed as cell growth inhibition incubated for 96 hrs by cell titer glo assay; format: functional, cell-based; details: JeKo-1, 96 h
# [25] = tested on: Pfeiffer; assay: Antiproliferative activity against human Pfeiffer cells assessed as cell growth inhibition incubated for 96 hrs by cell titer glo assay; format: functional, cell-based
# [26] = tested on: SUD4; assay: Antiproliferative activity against human SU-DHL-4 cells assessed as cell growth inhibition incubated for 96 hrs by cell titer glo assay; format: functional, cell-based; details: SU-DHL-4, 96 h
# [27] = tested on: DOHH-2; assay: Antiproliferative activity against human DOHH-2 cells assessed as cell growth inhibition incubated for 96 hrs by cell titer glo assay; format: functional, cell-based; details: DOHH-2, 96 h
# [28] = tested on: Pfeiffer; assay: Induction of apoptosis in human Pfeiffer cells assessed as late apoptotic cells at 10 uM incubated for 48 hrs by annexin V-FITC staining based flow cytometry (reference value: 7.87 %); format: functional
# [29] = tested on: Pfeiffer; assay: Antitumor activity against human Pfeiffer cells xenografted in nude mouse assessed as tumor growth inhibition at 30 mg/kg, po BID for 21 days and measured twice weekly; format: functional; details: 504 h, time 21 day, read-out: TGI
# [30] = tested on: Rec1; assay: Antiproliferative activity against human REC1 cells assessed as cell growth inhibition incubated for 96 hrs by cell titer glo assay; format: functional, cell-based; details: Rec1, 96 h
# [31] = tested on: Pfeiffer; assay: Induction of apoptosis in human Pfeiffer cells assessed as early apoptotic cells at 10 uM incubated for 48 hrs by annexin V-FITC staining based flow cytometry (reference value: 4.16 %); format: functional
# Chain of Phosphatidylinositol 4,5-bisphosphate 3-kinase catalytic subunit alpha isoform (Homo sapiens, UniProt P42336) (P42336 whole entry, canonical isoform): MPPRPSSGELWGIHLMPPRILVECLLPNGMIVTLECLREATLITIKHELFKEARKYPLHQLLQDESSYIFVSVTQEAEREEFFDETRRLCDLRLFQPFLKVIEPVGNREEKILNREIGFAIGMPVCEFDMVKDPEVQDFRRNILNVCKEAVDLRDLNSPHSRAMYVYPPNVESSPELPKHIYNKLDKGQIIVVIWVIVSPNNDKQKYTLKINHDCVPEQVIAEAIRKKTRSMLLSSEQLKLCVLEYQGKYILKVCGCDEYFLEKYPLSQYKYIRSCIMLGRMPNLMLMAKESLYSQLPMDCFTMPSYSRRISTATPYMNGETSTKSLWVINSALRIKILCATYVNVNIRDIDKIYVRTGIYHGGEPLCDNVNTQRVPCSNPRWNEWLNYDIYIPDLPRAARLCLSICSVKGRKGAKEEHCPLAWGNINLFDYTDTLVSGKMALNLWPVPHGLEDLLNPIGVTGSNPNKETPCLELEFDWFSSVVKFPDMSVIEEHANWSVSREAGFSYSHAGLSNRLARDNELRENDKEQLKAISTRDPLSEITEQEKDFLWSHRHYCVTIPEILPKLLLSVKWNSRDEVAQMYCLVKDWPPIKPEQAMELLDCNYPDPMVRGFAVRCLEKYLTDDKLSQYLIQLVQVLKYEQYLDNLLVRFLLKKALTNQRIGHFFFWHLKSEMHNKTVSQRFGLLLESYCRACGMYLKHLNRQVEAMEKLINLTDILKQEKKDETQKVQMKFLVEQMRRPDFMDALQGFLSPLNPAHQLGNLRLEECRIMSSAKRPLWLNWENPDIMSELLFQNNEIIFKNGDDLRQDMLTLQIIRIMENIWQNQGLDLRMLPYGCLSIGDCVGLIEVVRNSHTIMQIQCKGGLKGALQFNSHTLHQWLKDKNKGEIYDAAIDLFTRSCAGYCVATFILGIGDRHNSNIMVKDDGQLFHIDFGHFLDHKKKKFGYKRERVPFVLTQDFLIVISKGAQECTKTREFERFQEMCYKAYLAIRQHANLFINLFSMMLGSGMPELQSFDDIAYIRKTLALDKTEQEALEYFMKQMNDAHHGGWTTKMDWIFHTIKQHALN
# T1 sequence (P42338 whole entry, canonical isoform): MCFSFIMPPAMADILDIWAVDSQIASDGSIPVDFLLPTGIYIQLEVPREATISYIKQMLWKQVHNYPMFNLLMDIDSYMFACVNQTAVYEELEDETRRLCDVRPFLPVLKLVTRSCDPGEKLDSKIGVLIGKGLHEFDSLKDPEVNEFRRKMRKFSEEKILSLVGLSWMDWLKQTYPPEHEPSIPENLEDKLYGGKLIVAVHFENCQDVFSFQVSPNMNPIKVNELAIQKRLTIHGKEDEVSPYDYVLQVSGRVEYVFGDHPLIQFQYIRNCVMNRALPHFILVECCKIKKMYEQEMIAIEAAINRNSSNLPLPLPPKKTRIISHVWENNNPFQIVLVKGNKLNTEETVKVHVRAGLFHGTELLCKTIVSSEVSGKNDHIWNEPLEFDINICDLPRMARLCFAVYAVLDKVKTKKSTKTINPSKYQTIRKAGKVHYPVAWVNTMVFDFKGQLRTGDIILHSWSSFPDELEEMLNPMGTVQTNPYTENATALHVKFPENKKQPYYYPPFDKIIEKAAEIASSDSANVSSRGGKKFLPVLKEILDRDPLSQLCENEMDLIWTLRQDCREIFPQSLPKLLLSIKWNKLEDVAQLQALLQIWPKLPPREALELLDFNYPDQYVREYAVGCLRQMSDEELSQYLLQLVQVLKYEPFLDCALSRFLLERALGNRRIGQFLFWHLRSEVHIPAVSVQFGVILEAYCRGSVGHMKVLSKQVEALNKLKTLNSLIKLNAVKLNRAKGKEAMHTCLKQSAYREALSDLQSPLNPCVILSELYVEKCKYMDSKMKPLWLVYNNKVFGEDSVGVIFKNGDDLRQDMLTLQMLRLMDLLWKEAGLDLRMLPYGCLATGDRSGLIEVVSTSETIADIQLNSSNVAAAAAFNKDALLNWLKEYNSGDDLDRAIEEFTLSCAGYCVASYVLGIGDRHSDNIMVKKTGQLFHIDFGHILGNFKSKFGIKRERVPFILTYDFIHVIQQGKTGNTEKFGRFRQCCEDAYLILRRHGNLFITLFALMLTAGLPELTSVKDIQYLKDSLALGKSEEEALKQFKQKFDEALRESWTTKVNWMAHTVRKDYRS
# Chain of Phosphatidylinositol 4,5-bisphosphate 3-kinase catalytic subunit gamma isoform (Homo sapiens, UniProt P48736) (P48736 whole entry, canonical isoform): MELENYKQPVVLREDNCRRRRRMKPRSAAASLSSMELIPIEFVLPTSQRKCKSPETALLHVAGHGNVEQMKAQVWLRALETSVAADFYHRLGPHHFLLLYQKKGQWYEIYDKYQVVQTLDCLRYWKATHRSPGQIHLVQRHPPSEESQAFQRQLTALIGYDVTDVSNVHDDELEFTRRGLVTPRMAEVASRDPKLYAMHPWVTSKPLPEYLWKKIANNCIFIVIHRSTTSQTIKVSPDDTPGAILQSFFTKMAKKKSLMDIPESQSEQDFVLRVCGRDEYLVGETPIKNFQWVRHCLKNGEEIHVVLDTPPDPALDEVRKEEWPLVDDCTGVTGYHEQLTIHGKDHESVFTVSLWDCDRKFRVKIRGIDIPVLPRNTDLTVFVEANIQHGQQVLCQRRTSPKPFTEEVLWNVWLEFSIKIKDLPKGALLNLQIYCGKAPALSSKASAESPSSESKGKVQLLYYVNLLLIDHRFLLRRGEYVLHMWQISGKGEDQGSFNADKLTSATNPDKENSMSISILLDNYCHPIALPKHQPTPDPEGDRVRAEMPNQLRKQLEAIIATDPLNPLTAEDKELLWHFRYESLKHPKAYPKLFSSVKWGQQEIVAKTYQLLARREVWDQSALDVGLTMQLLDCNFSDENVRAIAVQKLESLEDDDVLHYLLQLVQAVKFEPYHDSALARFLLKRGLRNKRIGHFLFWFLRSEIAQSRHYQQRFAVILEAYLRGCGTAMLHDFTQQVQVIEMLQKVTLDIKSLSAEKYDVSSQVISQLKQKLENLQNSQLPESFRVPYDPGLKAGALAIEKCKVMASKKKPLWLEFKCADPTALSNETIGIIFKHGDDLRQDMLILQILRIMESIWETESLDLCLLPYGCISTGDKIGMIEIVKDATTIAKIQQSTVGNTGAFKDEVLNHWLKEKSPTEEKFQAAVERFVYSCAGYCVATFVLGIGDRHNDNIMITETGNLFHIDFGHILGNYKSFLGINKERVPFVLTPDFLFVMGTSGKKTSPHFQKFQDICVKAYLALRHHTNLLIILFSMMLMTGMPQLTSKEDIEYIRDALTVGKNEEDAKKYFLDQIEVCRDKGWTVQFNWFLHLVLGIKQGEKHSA
# Chain of Phosphatidylinositol 4,5-bisphosphate 3-kinase catalytic subunit alpha isoform (Mus musculus, UniProt P42337) (P42337 whole entry, canonical isoform): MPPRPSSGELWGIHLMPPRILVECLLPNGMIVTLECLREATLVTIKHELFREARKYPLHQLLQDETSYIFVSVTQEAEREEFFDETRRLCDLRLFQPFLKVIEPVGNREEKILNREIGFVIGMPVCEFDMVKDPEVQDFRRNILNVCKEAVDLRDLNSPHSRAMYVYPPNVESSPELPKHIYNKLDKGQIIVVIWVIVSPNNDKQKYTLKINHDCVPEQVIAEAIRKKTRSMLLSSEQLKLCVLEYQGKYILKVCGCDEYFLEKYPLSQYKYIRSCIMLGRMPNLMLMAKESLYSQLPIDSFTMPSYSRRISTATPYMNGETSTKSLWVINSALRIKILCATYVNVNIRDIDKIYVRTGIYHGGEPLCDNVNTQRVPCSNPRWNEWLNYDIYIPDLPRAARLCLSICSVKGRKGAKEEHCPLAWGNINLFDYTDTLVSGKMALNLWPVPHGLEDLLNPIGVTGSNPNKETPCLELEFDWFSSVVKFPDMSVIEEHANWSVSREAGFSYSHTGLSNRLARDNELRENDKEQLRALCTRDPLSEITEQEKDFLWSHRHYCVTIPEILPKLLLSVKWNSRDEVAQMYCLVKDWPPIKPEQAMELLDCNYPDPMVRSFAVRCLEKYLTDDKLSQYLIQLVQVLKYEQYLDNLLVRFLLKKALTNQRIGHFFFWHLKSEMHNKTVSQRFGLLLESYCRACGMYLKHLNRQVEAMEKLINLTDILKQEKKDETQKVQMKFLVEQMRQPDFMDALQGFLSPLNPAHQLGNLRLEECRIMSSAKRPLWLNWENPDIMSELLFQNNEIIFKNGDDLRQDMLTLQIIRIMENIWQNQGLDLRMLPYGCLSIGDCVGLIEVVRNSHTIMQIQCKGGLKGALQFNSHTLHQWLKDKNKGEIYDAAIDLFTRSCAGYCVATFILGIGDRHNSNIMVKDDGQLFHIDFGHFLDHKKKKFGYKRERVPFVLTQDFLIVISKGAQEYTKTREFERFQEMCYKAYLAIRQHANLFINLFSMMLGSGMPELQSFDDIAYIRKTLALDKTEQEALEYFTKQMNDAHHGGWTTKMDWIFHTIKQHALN
structure (smiles),measurement,setting,value
COc1cc(-c2cc3c(N[C@H]4CCN(C(=O)C5CCC5)C4)ncnc3s2)cnc1OC,IC50,[1],> 10000 nM
same,IC50,[2],4210 nM
same,IC50,[3],20800 nM
same,solubility,[4],39.7 µM
same,IC50,[5],172 nM
same,IC50,[6],1370 nM
same,IC50,[7],33.7 nM
same,CLint scaled,[8],342 mL/min/kg
same,IC50,[9],1990 nM
same,solubility,[10],5.67 µM
same,IC50,[11],2.2 nM
same,half-life,[12],15.9 min
same,fraction unbound,[13],0.01
same,IC50,[14],4780 nM
COc1cc(-c2cc3c(N[C@H]4CCN(C(=O)C5CCCC5)C4)ncnc3s2)cnc1OC,IC50,[5],483 nM
same,IC50,[11],8.5 nM
COc1cc(-c2cc3c(O[C@H]4CCN(C(=O)C(C)C)C4)ncnc3s2)cnc1OC,IC50,[5],411 nM
same,IC50,[11],10 nM
CCC(=O)N1CC[C@H](Oc2ncnc3sc(-c4cnc(OC)c(OC)c4)cc23)C1,IC50,[5],428 nM
same,IC50,[11],11 nM
COc1cc(-c2cc3c(O[C@H]4CCN(C(=O)C5CC5)C4)ncnc3s2)cnc1OC,IC50,[5],322 nM
same,IC50,[11],10 nM
CCC(=O)N1CC[C@H](Nc2ncnc3sc(-c4cncc(S(C)(=O)=O)c4)cc23)C1,IC50,[5],1210 nM
same,IC50,[11],38 nM
CCCC(=O)N1CC[C@H](Nc2ncnc3sc(-c4cnc(OC)c(OC)c4)cc23)C1,IC50,[5],363 nM
same,IC50,[11],12 nM
CCC(=O)N1CC[C@H](Nc2ncnc3sc(-c4ccc(F)c(C#N)c4)cc23)C1,IC50,[5],> 10000 nM
same,IC50,[11],1010 nM
COc1cc(-c2cc3c(N[C@H]4CCN(C(=O)C(C)C)C4)ncnc3s2)cnc1OC,IC50,[5],241 nM
same,IC50,[11],55 nM
CCC(=O)N1CC[C@H](Nc2ncnc3sc(-c4cccc(S(C)(=O)=O)c4)cc23)C1,IC50,[5],3070 nM
same,IC50,[11],128 nM
CCC(=O)N1CC[C@H](Oc2ncnc3sc(-c4cnc(OC)c(C#N)c4)cc23)C1,IC50,[5],7330 nM
same,IC50,[11],156 nM
CCC(=O)N1CC[C@H](Nc2ncnc3sc(-c4ccc(C#N)nc4)cc23)C1,IC50,[5],> 1000 nM
same,IC50,[11],458 nM
COc1cc(-c2cc3c(N[C@H]4CCN(C(=O)C(C)(C)C)C4)ncnc3s2)cnc1OC,IC50,[5],793 nM
same,IC50,[11],53 nM
CCC(=O)N1CC[C@H](Nc2ncnc3sc(-c4cnc(OC)c(C(F)(F)F)c4)cc23)C1,IC50,[5],2060 nM
same,IC50,[11],103 nM
CCC(=O)N1CC[C@H](Nc2ncnc3c2CN(c2cnc(OC)c(C(F)(F)F)c2)CC3)C1 [LENIOLISIB],IC50,[1],> 10000 nM
same,IC50,[2],2680 nM
same,IC50,[3],19600 nM
same,solubility,[4],77.6 µM
same,IC50,[5],75.5 nM
same,IC50,[6],363 nM
same,Activity,[15],4.76%
same,Activity,[16],11.23%
same,IC50,[17],31200 nM
same,CLint scaled,[8],355 mL/min/kg
same,Activity,[18],78.31%
same,Activity,[19],5.69%
same,IC50,[9],902 nM
same,Activity,[20],10%
same,Activity,[21],5.7%
same,IC50,[22],770 nM
same,solubility,[10],57.9 µM
same,Activity,[23],75.9%
same,IC50,[24],31700 nM
same,half-life,[12],15.4 min
same,fraction unbound,[13],0.066
same,IC50,[25],3750 nM
same,IC50,[26],8250 nM
same,IC50,[27],29200 nM
same,Activity,[28],12.88%
same,IC50,[14],4040 nM
same,inhibition in vivo at 30 mg/kg,[29],53.8%
same,IC50,[30],1280 nM
same,Activity,[31],5.53%
